Test results published in publication PMC6301270 (MedChemComm, 2018).
“Also recorded” adds a separate entry of the source. Where two headings read alike, the source gives them in different places.

Legend:
T. brucei culture = system: T. brucei culture; design: method as in PMID 22148754, PMID 20360736; details: through selective inhibition of T. brucei N-myristoyl transferase; cited from earlier work
T.b. brucei = system: T.b. brucei; design: method as in https://www.pathogenbox.org/; details: Table 1, kinetoplastid category; ref https://www.pathogenbox.org/; read-out: T. brucei brucei IC50 (μM) Pathogen Box; cited from earlier work
[1] = system: T.b. brucei (strain 427) bloodstream form parasites; assay: Trypanosoma brucei assay, dose–response (this study); format: cell-based; details: for IC50: Trypanosoma brucei; for Selectivity index: calculated as IC50(HeLa)/IC50(T.bb)
[2] = system: T.b. brucei (strain 427) bloodstream form parasites; assay: T.b. brucei single concentration screen (10 μM); details: Trypanosoma brucei, read-out: T.b.brucei % viability (10 µM)
HeLa cells = assay: HeLa cell assay (cytotoxicity); format: cell-based; details: Homo sapiens
Description: HeLa cells were cultured in DMEM medium supplemented with 10% fetal bovine serum and antibiotics (penicillin/streptomycin/amphotericin B) at 37 °C in a 5% CO2 incubator. On the day prior to compound addition, cells were plated in 96-well plates at 2 × 10^4 cells per well. Compounds were added to the cells in 3-fold serial dilutions and incubation at 37 °C in a 5% CO2 incubator continued for 48 hours. Twenty μl resazurin reagent (0.5 mM resazurin in phosphate-buffered saline) was added to each well and, after a 2-hour incubation, fluorescence (Exc560/Em590) was measured in a plate reader. Percentage cell viability in drug-treated wells was calculated from the fluorescent readings obtained relative to those in wells containing control, untreated cells. Plots of % cell viability vs. log[compound] were used to determine IC50 values by non-linear regression analysis using GraphPad Prism.

HepG2 cells = system: HepG2 cells; design: method as in Pathogen Box; details: ref Pathogen Box, read-out: CC50 against HepG2 cells; cited from earlier work
[3] = system: M. tuberculosis CTP synthase, PyrG; design: method as in PMID 28475832; details: cited from earlier work
mycobacterial = system: mycobacterial; design: method as in PMID 23268609; details: inhibits the ATPase domain of DNA gyrase B; cited from earlier work
plasmodial = system: plasmodial; design: method as in PMID 22390538; details: screen of the SoftFocus kinase library; cited from earlier work
Leishmaniasis donovani = system: Leishmaniasis donovani; design: method as in Duffy et al.; details: ref Duffy et al.; cited from earlier work
kinetoplastid = system: kinetoplastid; design: method as in PMID 25740547; details: screen of 1.8 million compounds; cited from earlier work
[4] = Table 2, remaining Pathogen Box, 48 hours at 37 °C, resazurin, read-out: T. brucei brucei IC50 (μM) This study
[5] = pIC50 values (M), read-out: pIC50 (T.b. brucei), this study (converted)
[6] = Table 2, HeLa cells, 48 hours, resazurin, read-out: HeLa IC50

Compound	Inhibition of T. brucei culture (T. brucei culture)	IC50 (T.b. brucei) [µM]	IC50 ([1]; 48 h, read-out: T. brucei brucei IC50 (μM) This study) [µM]	viability at 10 µM [2] [%]	IC50 (HeLa cells; HeLa, 48 h, read-out: HeLa IC50 (μM)) [µM]	T.b. brucei inhibition in words, this study [1]	IC50 [1, 4] [µM]	IC50 [1, 5] [µM]	Selectivity index [1]	IC50 (HeLa cells; [6]) [µM]	CC50 (HepG2 cells) [nM]	Inhibition of M. tuberculosis CTP synthase, PyrG [3]	In vitro anti-mycobacterial activity (mycobacterial)	Anti-plasmodial activity (plasmodial)	Inhibition of Leishmaniasis donovani (Leishmaniasis donovani)	Kinetoplastid inhibition (kinetoplastid)
Cc1nn(C)c(C)c1NS(=O)(=O)c1c(Cl)cc(-c2ccnc(N3CCNCC3)c2)cc1Cl [Compound 1, Cc1nn(C)c(C)c1NS(=O)(=O)c2c(Cl)cc(cc2Cl)c3ccnc(c3)N4CCNCC4]	moderate inhibitor	< 0.13	11	2	2.8	–	–	–	–	–	–	–	–	–	–	–
CCc1c(C)nc(-n2nc(C)cc2NC(=O)c2ccccc2SC)[nH]c1=O [Compound 39, CCC1=C(C)N=C(NC1=O)n2nc(C)cc2NC(=O)c3ccccc3SC]	–	–	–	2	–	sub-micromolar inhibitors; also recorded: sub-micromolar range	0.59	< 1	4.4	2.6	1300	–	–	–	–	–
CC(Oc1ccccc1)C(=O)Nc1nc(-c2ccccn2)cs1 (stereo not shown) [Compound 40, CC(Oc1ccccc1)C(=O)Nc2nc(cs2)c3ccccn3]	–	–	–	2	–	sub-micromolar range	0.76	< 1	–	8.4	–	moderate inhibitors	–	–	–	–
CN1CCN(CCCOc2ncc(Nc3ncc(-c4ccc(C(F)(F)F)c(F)c4)nc3C(N)=O)cn2)CC1 [Compound 46, CN1CCN(CCCOc2ncc(Nc3ncc(nc3C(=O)N)c4ccc(c(F)c4)C(F)(F)F)cn2)CC1]	–	–	–	3	–	sub-micromolar inhibitors; also recorded: sub-micromolar range	0.87	< 1	5.5	4.8	3900	–	potent	–	–	–
COc1cc(-c2cc(-c3ccc(S(C)(=O)=O)cc3)cnc2N)ccc1O [Compound 53, COc1cc(ccc1O)c2cc(cnc2N)c3ccc(cc3)S(=O)(=O)C]	–	–	–	1	–	sub-micromolar inhibitors; also recorded: sub-micromolar range; also recorded: activity in the nanomolar range	0.33	< 1	–	> 25	–	–	–	potent and selective	moderate inhibitor	–
TCMDC 142497 [Compound 70]	–	–	–	–	–	–	–	–	–	–	–	–	–	–	–	potent kinetoplastid inhibitor
